One test deals with FPTase (K-Ras substrate) (UniProt P29702+P49355). Put plainly: in vitro FTase Inhibition Assay, K-Ras as substrate for farnesylation. Format: biochemical. The settings on record: K-Ras used as substrate for farnesylation. Here is the method:
(§1) The ability of the compounds of this invention to inhibit FPTase was evaluated in the standard pharmacological in vitro test procedures described below.
(§2) Methods—1. […] 2. Solution #1 is added to FPTase reaction in a volume of […]. 3. Standard reaction mix, […], contains 50 mM Tris (7.5), […], 3 mM MgCl2, 20 mM KCl, 5 mM DTT, 0.2% octyl-B-glucoside, 1% DMSO, […], 10 ng FPTase, and various concentrations of FPTase inhibitors. 4. Incubate for 30-90 min at […] 5. Stop reactions with TCA/SDS (6%/2%), hold at 4° C. for 45-60 min. 6. Filter by manifold or 96 well plate, wash filter 3-5× with TCA (6%). 7. Add scintillant to filters, measure ^3H-FPP incorporation into Ras protein.
(§3) (cpm from precipitated Ras with test compounds)−(background cpm)×100=% inhibition.
(§4) (cpm from precipitated Ras without test compounds)−(background cpm)

A further test concerns the target FPTase (H-Ras substrate) (UniProt P29702+P49355). The test is described as follows: in vitro FTase Inhibition Assay, H-Ras as substrate for farnesylation. To be noted: H-Ras used as substrate for farnesylation. The test is classed as biochemical. Here is the method: as §1, §2, §3, §4

These results are taken from patent publication US6784184B2, “5-(arylsulfonyl)-,5-(arylsulfinyl), and 5-(arylsulfanyl)-thiazolidine-2,4-diones useful for inhibition of farnesyl-protein transferase” (Wyeth Holdings Corporation, priority 2001, dated 2004).

For the compound “5-[5-(2-Methyl-4-nitrophenyl)pent-4-ynyl]-5-[4-(pyridin-4-yloxy)-benzenesulfonyl]-thiazolidine-2,4-dione [Example 128]”, the values for the IC50 on FPTase (K-Ras substrate) and at FPTase (H-Ras substrate) were 20 to 220 nM and 1 to 32 nM, respectively.
The corresponding values for “5-[5-(4-Chloro-2-methylphenyl)-pent-4-ynyl]-5-(4-iodobenzene-sulfonyl)-thiazolidine-2,4-dione [Example 141]” are 300 to 340 nM and 21 to 32 nM.
Regarding “5-[5-(4-Chloro-2-methylphenyl)pent-4-ynyl]-5-(4-trifluoromethoxy-benzenesulfonyl)thiazolidine-2,4-dione [Example 140]”, the IC50 on FPTase (K-Ras substrate) is 1000 to 3600 nM; on FPTase (H-Ras substrate) it was 150 to 300 nM.
In the case of `COc1ccc(S(=O)(=O)C2(CCCC#Cc3cc(NC(=O)OC(C)(C)C)ccc3C)SC(=O)NC2=O)cc1` (single isomer, unassigned; less polar) [Example 222, Enantiomer of(3-{5-[5-(4-Methoxybenzenesulfonyl)-2,4-dioxothiazolidin-5-yl]pent-1-ynyl}-4-methylphenyl)carbamic Acid tert-Butyl Ester (less polar)], the IC50 was determined as 33 nM at FPTase (K-Ras substrate) and 3.3 nM against FPTase (H-Ras substrate).
For `COc1ccc(S(=O)(=O)C2(CCCC#Cc3cc(NC(=O)OC(C)(C)C)ccc3C)SC(=O)NC2=O)cc1` (single isomer, unassigned; more polar) [Example 223, Enantiomer of(3-{5-[5-(4-Methoxybenzenesulfonyl)-2,4-dioxothiazolidin-5-yl]pent-1-ynyl}-4-methylphenyl)carbamic Acid tert-Butyl Ester (more polar)] the same measures were greater than 1000 nM and 63 nM.
Regarding `O=C1NC(=O)C(CCCC#Cc2ccc(Cl)cc2)(Sc2ccc(F)cc2)S1` (stereo not drawn) [Example 96, 5-[5-(4-Chlorophenyl)pent-4-ynyl]-5-(4-fluorophenylsulfanyl)-thiazolidine-2,4-dione], on FPTase (H-Ras substrate), the IC50 is 700 nM.
As for `COc1ccc(S(=O)(=O)C2(CCCC#Cc3ccc(Cl)cc3)SC(=O)NC2=O)cc1` (stereo not drawn) [Example 97, 5-[5-(4-Chlorophenyl)pent-4-ynyl]-5-(4-methoxyphenylsulfonyl)-thiazolidine-2,4-dione], the IC50 against FPTase (K-Ras substrate) lay in the range of 3500 to 5500 nM; at FPTase (H-Ras substrate), 75 to 150 nM.
For `COc1ccc(S(=O)(=O)C2(CCCC#Cc3ccccc3Cl)SC(=O)NC2=O)cc1` (stereo not drawn) [Example 101, 5-[5-(2-Chlorophenyl)pent-4-ynyl]-5-(4-methoxybenzenesulfonyl)-thiazolidine-2,4-dione] the same measures were 110 to 1000 nM and 10 to 30 nM.
With `COc1ccc(S(=O)(=O)C2(CCCC#Cc3cccc(Cl)c3)SC(=O)NC2=O)cc1` (stereo not drawn) [Example 102, 5-[5-(3-Chlorophenyl)pent-4-ynyl]-5-(4-methoxybenzenesulfonyl)-thiazolidine-2,4-dione], the IC50 against FPTase (K-Ras substrate) is 1400 nM; at FPTase (H-Ras substrate) it was 30 to 32 nM.
As for `Cc1ccc(S(=O)(=O)C2(CCCC#Cc3ccc(Cl)cc3)SC(=O)NC2=O)cc1` (stereo not drawn) [Example 103, 5-[5-(4-Chlorophenyl)pent-4-ynyl]-5-(p-tolylsulfonyl)-thiazolidine-2,4-dione], the figures for the IC50 against FPTase (K-Ras substrate) and against FPTase (H-Ras substrate) were 900 to 10000 nM and 30 to 50 nM, respectively.
For `O=C1NC(=O)C(CCCC#Cc2ccc(Cl)cc2)(S(=O)(=O)c2ccc(I)cc2)S1` (stereo not drawn) [Example 104, 5-[5-(4-Chlorophenyl)pent-4-ynyl]-5-(4-iodobenzenesulfonyl)-thiazolidine-2,4-dione] the same measures were 230 to 900 nM and 30 to 54 nM.
As to `O=C1NC(=O)C(CCCC#Cc2ccc(Cl)cc2)(S(=O)(=O)c2ccc(F)cc2)S1` (stereo not drawn) [Example 105, 5-[5-(4-Chlorophenyl)pent-4-ynyl]-5-(4-fluorobenzenesulfonyl)-thiazolidine-2,4-dione], the values for the IC50 at FPTase (K-Ras substrate) and against FPTase (H-Ras substrate) were 1500 to 1700 nM and 50 to 150 nM, respectively.
The corresponding values for `O=C1NC(=O)C(CCCC#Cc2ccc(Cl)cc2)(S(=O)(=O)c2ccc(Oc3ccccc3)cc2)S1` (stereo not drawn) [Example 106, 5-[5-(4-Chlorophenyl)pent-4-ynyl]-5-(4-phenoxybenzenesulfonyl)-thiazolidine-2,4-dione] are 1300 to 1700 nM and 230 to 250 nM.
Consider `O=C1NC(=O)C(CCCC#Cc2ccc(Cl)cc2)(S(=O)(=O)c2ccc3ccccc3c2)S1` (stereo not drawn) [Example 107, 5-[5-(4-Chlorophenyl)pent-4-ynyl]-5-(naphthalene-2-sulfonyl)-thiazolidine-2,4-dione], for which the IC50 fell in the range of 620 to 700 nM against FPTase (K-Ras substrate) and 180 to 200 nM on FPTase (H-Ras substrate).
For `CC(=O)Nc1ccc(S(=O)(=O)C2(CCCC#Cc3ccc(Cl)cc3)SC(=O)NC2=O)cc1` (stereo not drawn) [Example 108, N-(4-{5-[5-(4-Chlorophenyl)pent-4-ynyl]-2,4-dioxothiazolidine-5-sulfonyl}phenyl)acetamide] the same measures were no less than 9000 nM and 130 to 180 nM.
For the compound `O=C1NC(=O)C(CCCC#Cc2ccc(Cl)cc2)(S(=O)(=O)c2cccc3cccnc23)S1` (stereo not drawn) [Example 109, 5-[5-(4-Chlorophenyl)pent-4-ynyl]-5-(quinoline-8-sulfonyl)-thiazolidine-2,4-dione], the IC50 was in the range of 1400 to 2100 nM against FPTase (K-Ras substrate) and 65 to 130 nM on FPTase (H-Ras substrate).
For `O=C1NC(=O)C(CCCC#Cc2ccc(Cl)cc2)(S(=O)(=O)c2ccc([N+](=O)[O-])cc2)S1` (stereo not drawn) [Example 110, 5-[5-(4-Chlorophenyl)pent-4-ynyl]-5-(4-nitrobenzenesulfonyl)-thiazolidine-2,4-dione], the IC50 at FPTase (K-Ras substrate) stood at 7000 nM; on FPTase (H-Ras substrate) it was 400 nM.
For `O=C1NC(=O)C(CCCC#Cc2ccc(Cl)cc2)(S(=O)(=O)c2ccc(OCc3ccccc3)cc2)S1` (stereo not drawn) [Example 111, 5-(4-Benzyloxybenzenesulfonyl)-5-[5-(4-chlorophenyl)pent-4-ynyl]-thiazolidine-2,4-dione] the same measures were 300 to 550 nM and 110 to 150 nM.
With `CCCCOc1ccc(S(=O)(=O)C2(CCCC#Cc3ccc(Cl)cc3)SC(=O)NC2=O)cc1` (stereo not drawn) [Example 112, 5-(4-Butoxybenzenesulfonyl)-5-[5-(4-chlorophenyl)-pent-4-ynyl]-thiazolidine-2,4-dione], the IC50 fell in the range of 1400 to 1500 nM against FPTase (K-Ras substrate) and 590 to 600 nM at FPTase (H-Ras substrate).
For `O=C1NC(=O)C(CCCC#Cc2ccc(Cl)cc2)(S(=O)(=O)c2cccc3ccccc23)S1` (stereo not drawn) [Example 113, 5-[5-(4-Chlorophenyl)pent-4-ynyl]-5-(naphthalene-1-sulfonyl)-thiazolidine-2,4-dione] the same measures were 750 to 800 nM and 50 to 60 nM.
Consider `O=C1NC(=O)C(CCCC#Cc2cc(Cl)ccc2Cl)(S(=O)(=O)c2ccc(I)cc2)S1` (stereo not drawn) [Example 115, 5-[5-(2,5-Dichloro-phenyl)pent-4-ynyl]-5-(4-iodobenzenesulfonyl)-thiazolidine-2,4-dione], for which the IC50 was 160 to 230 nM against FPTase (K-Ras substrate) and 12 to 320 nM on FPTase (H-Ras substrate).
The corresponding values for `O=C1NC(=O)C(CCCC#Cc2cc(Cl)ccc2Cl)(S(=O)(=O)c2ccc(Oc3ccncc3)cc2)S1` (stereo not drawn) [Example 116, 5-[5-(2,5-Dichlorophenyl)pent-4-ynyl]-5-[4-(pyridin-4-yloxy)benz-enesulfonyl]-thiazolidine-2,4-dione] are 17 to 40 nM and 5 to 10 nM.
With `COc1ccc(S(=O)(=O)C2(CCCC#Cc3ccc(Cl)cc3Cl)SC(=O)NC2=O)cc1` (stereo not drawn) [Example 117, 5-[5-(2,4-Dichlorophenyl)pent-4-ynyl]-5-(4-methoxybenzenesulfonyl)-thiazolidine-2,4-dione], the IC50 is 510 to 1000 nM against FPTase (K-Ras substrate) and 20 to 30 nM at FPTase (H-Ras substrate).
As to `COc1ccc(S(=O)(=O)C2(CCCC#Cc3cccc([N+](=O)[O-])c3)SC(=O)NC2=O)cc1` (stereo not drawn) [Example 118, 5-(4-Methoxybenzenesulfonyl)-5-[5-(3-nitrophenyl)pent-4-ynyl]-thiazolidine-2,4-dione], the IC50 came out at 1900 nM at FPTase (K-Ras substrate) and 70 nM on FPTase (H-Ras substrate).
With `O=C1NC(=O)C(CCCC#Cc2cccc([N+](=O)[O-])c2)(S(=O)(=O)c2ccc(Oc3ccccc3)cc2)S1` (stereo not drawn) [Example 119, 5-[5-(3-Nitrophenyl)pent-4-ynyl]-5-(4-phenoxybenzenesulfonyl)-thiazolidine-2,4-dione], the IC50 against FPTase (K-Ras substrate) fell in the range of 1300 to 1700 nM; at FPTase (H-Ras substrate), 130 to 140 nM.
At FPTase (H-Ras substrate), `COc1ccc(S(=O)(=O)C2(CCCC#Cc3ccc(-n4cccc4)cc3)SC(=O)NC2=O)cc1` (stereo not drawn) [Example 161, 5-(4-Methoxybenzenesulfonyl)-5-[5-(4-pyrrol-1-yl-phenyl)pent-4-ynyl]-thiazolidine-2,4-dione] yielded an IC50 of 900 nM.
Same read-out and setting: the value for `O=C1NC(=O)C(CCCC#Cc2ccc(-n3cccc3)cc2)(S(=O)(=O)c2ccc(OC(F)(F)F)cc2)S1` (stereo not drawn) [Example 163, 5-[5-(4-Pyrrol-1-ylphenyl)pent-4-ynyl]-5-(4-trifluoromethoxybenzenesulfonyl)-thiazolidine-2,4-dione] was 1300 nM.
`COc1ccc(S(=O)(=O)C2(CC#Cc3cccnc3)SC(=O)NC2=O)cc1` (stereo not drawn) [Example 167, 5-(4-Methoxybenzenesulfonyl)-5-(3-pyridin-3-ylprop-2-ynyl)-thiazolidine-2,4-dione] registered an IC50 against FPTase (H-Ras substrate) of 1500 nM.
Compound `Cc1ccc(S(=O)(=O)C2(CC#Cc3cccs3)SC(=O)NC2=O)cc1` (stereo not drawn) [Example 168, 5-(3-Thiophen-2-yl-prop-2-ynyl)-5-(toluene-4-sulfonyl)-thiazolidine-2,4-dione] displayed an IC50 at FPTase (H-Ras substrate) of 280 nM.
The compound `COc1ccc(S(=O)(=O)C2(CCCC#Cc3ccc(Cl)cc3)SC(=O)N(CCCn3ccnc3)C2=O)cc1` (stereo not drawn) [Example 233, 5-[5-(4-Chlorophenyl)pent-4-ynyl]-3-(3-imidazol-1-yl-propyl)-5-(4-methoxybenzenesulfonyl)-thiazolidine-2,4-dione] had an IC50 at FPTase (H-Ras substrate) of 2900 nM.

What is called IC50 is the concentration at which inhibition is half-maximal. A higher IC50 goes with weaker potency.
